Laboratory results reported in ChEMBL document CHEMBL1201862, “PubChem BioAssay data set” (2004).
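Values below derive from 48-hour exposures of cells grown in 96-well plates, with endpoints linearly interpolated between the two concentrations bracketing the appropriate inhibition level. Abbreviation: GI50, concentration required for 50% inhibition of growth.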 The source made the active and inactive calls. Rule as the data show it: active = GI50 up to about 1.1 µM and inactive = higher.

Key:
Test in all cases: NCI-60 cell line screen, 48 h
[1] = test system: SNB-78
[2] = test system: DLD-1
[3] = test system: DMS-114
[4] = test system: KM-20L2
[5] = test system: RXF 631
[6] = test system: M19-MEL
[7] = test system: LXFL 529
[8] = test system: HOP-18

| SMILES | GI50 [1] | GI50 [2] | GI50 [3] | GI50 [4] | GI50 [5] | GI50 [6] | GI50 [7] | GI50 [8] |
| --- | --- | --- | --- | --- | --- | --- | --- | --- |
| COC(=O)C(Cc1c[nH]c2ccccc12)NC(=O)C(Cc1c[nH]c2ccccc12)NC(=O)OCc1ccccc1 (centres undefined) | 25.8 µM (inactive) | 18.5 µM (inactive) | 19.4 µM (inactive) | 18.2 µM (inactive) | 24 µM (inactive) | 18.4 µM (inactive) | 16.7 µM (inactive) | – |
| COc1c2c(cc3c1C(=O)Cc1ccc4c(c1CN(C)CC3)OCO4)OCO2 | > 100 µM (inactive) | > 100 µM (inactive) | 39.4 µM (inactive) | 38.2 µM (inactive) | 44.8 µM (inactive) | > 100 µM (inactive) | – | 20.7 µM (inactive) |
| C=CCN1CCC23c4c5ccc(O)c4OC2C(=NN=C2CCC4(O)C6Cc7ccc(O)c8c7C4(CCN6CC=C)C2O8)CCC3(O)C1C5 (centres undefined) | 27.2 µM (inactive) | 38.7 µM (inactive) | 24.7 µM (inactive) | 23.3 µM (inactive) | 20.5 µM (inactive) | – | 32.1 µM (inactive) | > 100 µM (inactive) |
| CCOC(=O)CCn1cnc(N)n1 | > 100 µM (inactive) | > 100 µM (inactive) | > 100 µM (inactive) | > 100 µM (inactive) | > 100 µM (inactive) | > 100 µM (inactive) | > 100 µM (inactive) | > 100 µM (inactive) |
| CCOC(=O)C12CCCC1(O)N(NC(=O)OC)C(C)=C2C(=O)OC (centres undefined) | > 100 µM (inactive) | > 100 µM (inactive) | > 100 µM (inactive) | > 100 µM (inactive) | > 100 µM (inactive) | > 100 µM (inactive) | > 100 µM (inactive) | > 100 µM (inactive) |
| C=CC1=CC(C)C[C@]1(O)C(=O)OC (some centres undefined) | > 100 µM (inactive) | < 0.01 µM (active) | < 0.01 µM (active) | > 100 µM (inactive) | < 0.01 µM (active) | < 0.01 µM (active) | < 0.01 µM (active) | > 100 µM (inactive) |
| COc1cc(O)c2c(c1)C(=O)C=C(Cl)C2=O | > 100 µM (inactive) | 30.3 µM (inactive) | > 100 µM (inactive) | > 100 µM (inactive) | 51.4 µM (inactive) | > 100 µM (inactive) | > 100 µM (inactive) | > 100 µM (inactive) |
| CN/N=C(\C)CC(=O)Nc1cccc(Cl)c1C | > 100 µM (inactive) | > 100 µM (inactive) | > 100 µM (inactive) | > 100 µM (inactive) | > 100 µM (inactive) | > 100 µM (inactive) | > 100 µM (inactive) | > 100 µM (inactive) |
| COc1ccc(C(=O)C(C(=O)CCC(=O)Nc2ccc(Cl)c(Cl)c2)c2ccc(OC)cc2)cc1 (centres undefined) | > 100 µM (inactive) | > 100 µM (inactive) | > 100 µM (inactive) | > 100 µM (inactive) | > 100 µM (inactive) | > 100 µM (inactive) | > 100 µM (inactive) | > 100 µM (inactive) |
